This is an account of results in publication PMC11355573, “A New Renieramycin T Right-Half Analog as a Small Molecule Degrader of STAT3” (Marine Drugs, 2024).

Read-outs that look alike come from different tables or passages of the source.

One assay concerns B16F10 cells. On the set-up: method as in PMID 36014573. The following applies: B16F10 cells induced by the RAW264.7 supernatant; cited from earlier work.
In assay [1] the test system is H460 cells. The following applies: cited from earlier work.
The test system of the next assay is BEAS-2B cells. Description: MTT assay in non-tumorigenic bronchial epithelial cells (selectivity). The class given is cell-based. The following applies: Homo sapiens, 24 h, read-out: BEAS-2B IC50 ± SD. On the procedure:
(§1) NSCLCs H292 and H460 were treated with various concentrations of derivatives of the RT right-half analog for 24 h. […] However, the IC50 values for DH_17, DH_20, DH_23, and DH_26 in H460 cells were greater than 100 μM. TM-(−)-18 was identified as a potent compound in a previous study. The structure of TM-(−)-18 was present in Figure 1A. […] To assess the selectivity of DH_28, DH_30, DH_31, and TM-(−)-18 in lung cancer cells, non-tumorigenic epithelial cell lines derived from human bronchial epithelial cells (BEAS-2B) were treated with DH_28, DH_30, DH_31, and TM-(−)-18 at various concentrations for 24 h.
Figure 2 The effect of RT right-half analogs on cytotoxicity in NSCLC and human normal lung epithelial (BEAS-2B) cell lines and apoptotic cell death in NSCLC cells. (A) NSCLC H292 and H460 cells were treated with derivatives of RT right-half analogs for 24 h and analyzed using MTT assay to assess cytotoxicity. (B) IC50 values for H292 and H460 cell lines were calculated. (C) BEAS-2B cells were treated with DH_28, DH_30, DH_31, and TM-(−)-18 for 24 h. The cytotoxic effects were evaluated using an MTT assay, and the IC50 values for BEAS-2B cells were determined. (D) H292 and H460 cells were seeded and treated with 0–10 μM of DH_28, DH_30, and DH_31 for 24 h. Hoechst 33342 and PI were used to stain the cell nuclei. Images were obtained under a fluorescence microscope. (E) The percentages of cell death were calculated based on the stained images in H292 and H460 cells. […] TEXT PRINTED IN THE PICTURE: (B) DH_17: IC50 ± SD (μM) H292: 20.50 ± 3.69; IC50 ± SD (μM) H460: > 100 | (B) DH_20: IC50 ± SD (μM) H292: 21.46 ± 3.77; IC50 ± SD (μM) H460: > 100 | (B) DH_23: IC50 ± SD (μM) H292: 17.50 ± 3.08; IC50 ± SD (μM) H460: > 100 | (B) DH_26: IC50 ± SD (μM) H292: 7.18 ± 2.39; IC50 ± SD (μM) H460: > 100 | (B) DH_28: IC50 ± SD (μM) H292: 9.56 ± 1.87; IC50 ± SD (μM) H460: 11.48 ± 1.87 | (B) DH_30: IC50 ± SD (μM) H292: 7.80 ± 2.30; IC50 ± SD (μM) H460: 4.51 ± 0.78 | (B) DH_31: IC50 ± SD (μM) H292: 5.54 ± 1.04; IC50 ± SD (μM) H460: 2.90 ± 0.58 | (B) TM-(–)-18: IC50 ± SD (μM) H292: > 100; IC50 ± SD (μM) H460: 7.89 ± 1.27 | (C) DH_28: BEAS-2B IC50 ± SD (μM): 16.46 ± 2.11 | (C) DH_30: BEAS-2B IC50 ± SD (μM): 5.50 ± 1.70 | (C) DH_31: BEAS-2B IC50 ± SD (μM): 6.51 ± 1.40 | (C) TM-(–)-18: BEAS-2B IC50 ± SD (μM): 7.25 ± 1.25 DOUBTS OF THE COPYIST ABOUT THIS PICTURE: Panel C, DH_28, IC50: small print, 16.46 ± 2.11 is the best reading; 6 could be 8 / Panel C, DH_30, IC50: small print, 5.50 ± 1.70 is the best reading; 5 could be 6 / Panel C, DH_31, IC50: small print, 6.51 ± 1.40 is the best reading; 6 could be 8 or 5 / Panel C, TM-(–)-18, IC50: small print, 7.25 ± 1.25 is the best reading
(In general: Tetrazolium dyes change colour on reduction, which living cells bring about.)

Assay [2] deals with H460 cells. The assay can be described thus: MTT cell viability assay (cytotoxicity). The following applies: read-out: IC50 ± SD H460. The class given is cell-based, human. On the procedure:
as §1
(§2) MTT assay was conducted to ascertain cell viability in the presence of DH_17, DH_20, DH_23, DH_26, DH_28, DH_30, DH_31, or TM-(–)-18. H292 and H460 cells (1.0 × 10^4 cells per well) were seeded in 96-well plates. Following overnight incubation, the cells were treated with different concentrations of RT right–half analogs (0–100 μM) for 24 h at 37 °C. Subsequently, cell viability was assessed using MTT assay, following the manufacturers’ protocols. The optical density was measured at 570 nm using a CLARIOStar microplate reader (BMG Labtech, Ortenberg, Germany).

Assay [3] concerns H292 cells. Description: MTT cell viability assay (cytotoxicity). The class given is cell-based, human. To be noted: read-out: IC50 ± SD H292. As to the method: as §1, §2
Assay [4] relates to H460 cells. The class given is cell-based. The following applies: H460, 10 µM, 24 h. As to the method:
(§3) Apoptosis is a crucial mechanism of cell death induced by anticancer drugs. We further analyzed the apoptosis induction effect of the potent small molecules, namely DH_28, DH_30, and DH_31. Nuclear morphology detected by the staining with nucleus-specific fluorescence dye Hoechst 33342 and cell-impermeable PI for necrotic detection was performed. Morphologic changes by means of condensed and/or fragmented nuclei were observed after 24 h of treatment (Figure 2D). […] Therefore, DH_31 was selected for further experiments.
(§4) Figure 2 The effect of RT right-half analogs on cytotoxicity in NSCLC and human normal lung epithelial (BEAS-2B) cell lines and apoptotic cell death in NSCLC cells. (A) NSCLC H292 and H460 cells were treated with derivatives of RT right-half analogs for 24 h and analyzed using MTT assay to assess cytotoxicity. (B) IC50 values for H292 and H460 cell lines were calculated. (C) BEAS-2B cells were treated with DH_28, DH_30, DH_31, and TM-(−)-18 for 24 h. The cytotoxic effects were evaluated using an MTT assay, and the IC50 values for BEAS-2B cells were determined. (D) H292 and H460 cells were seeded and treated with 0–10 μM of DH_28, DH_30, and DH_31 for 24 h. Hoechst 33342 and PI were used to stain the cell nuclei. Images were obtained under a fluorescence microscope. (E) The percentages of cell death were calculated based on the stained images in H292 and H460 cells. Data represent the mean ± SD (n = 3). *, **, and *** indicate a statistically significant difference between the treated and the untreated cells at p < 0.05, p < 0.01, and p < 0.001, respectively. TEXT PRINTED IN THE PICTURE: (B) DH_17: IC50 ± SD (μM) H292: 20.50 ± 3.69; IC50 ± SD (μM) H460: > 100 | (B) DH_20: IC50 ± SD (μM) H292: 21.46 ± 3.77; IC50 ± SD (μM) H460: > 100 | (B) DH_23: IC50 ± SD (μM) H292: 17.50 ± 3.08; IC50 ± SD (μM) H460: > 100 | (B) DH_26: IC50 ± SD (μM) H292: 7.18 ± 2.39; IC50 ± SD (μM) H460: > 100 | (B) DH_28: IC50 ± SD (μM) H292: 9.56 ± 1.87; IC50 ± SD (μM) H460: 11.48 ± 1.87 | (B) DH_30: IC50 ± SD (μM) H292: 7.80 ± 2.30; IC50 ± SD (μM) H460: 4.51 ± 0.78 | (B) DH_31: IC50 ± SD (μM) H292: 5.54 ± 1.04; IC50 ± SD (μM) H460: 2.90 ± 0.58 | (B) TM-(–)-18: IC50 ± SD (μM) H292: > 100; IC50 ± SD (μM) H460: 7.89 ± 1.27 | (C) DH_28: BEAS-2B IC50 ± SD (μM): 16.46 ± 2.11 | (C) DH_30: BEAS-2B IC50 ± SD (μM): 5.50 ± 1.70 | (C) DH_31: BEAS-2B IC50 ± SD (μM): 6.51 ± 1.40 | (C) TM-(–)-18: BEAS-2B IC50 ± SD (μM): 7.25 ± 1.25 DOUBTS OF THE COPYIST ABOUT THIS PICTURE: Panel C, DH_28, IC50: small print, 16.46 ± 2.11 is the best reading; 6 could be 8 / Panel C, DH_30, IC50: small print, 5.50 ± 1.70 is the best reading; 5 could be 6 / Panel C, DH_31, IC50: small print, 6.51 ± 1.40 is the best reading; 6 could be 8 or 5 / Panel C, TM-(–)-18, IC50: small print, 7.25 ± 1.25 is the best reading

The subject of assay [5] is H292 cells. The class given is cell-based. The following applies: H292, 10 µM. As to the method:
as §3, §4

On the set-up of assay [6]: method as in PMID 32260280. The following applies: concentration-dependent manner; cited from earlier work.

As for `CC=C(C)C(=O)OCC1c2c(c(O)c(C)c3c2OCO3)CC2C3C4=C(CC(C(C#N)N12)N3C)C(=O)C(C)=C(OC)C4=O` (stereo not shown) [RT, Renieramycin T], in the assay with B16F10 cells, the STAT3 expression result is recorded as “reduced”; the “Twist, Snail, Vimentin, and N-cadherin expression” value is “reduced”; the migration ability result is “reduced”.

Consider 22-O-(N-Boc-L-glycine) ester of RM, for which the H460 cell motility entry with H460 cells [1] is recorded as “inhibited”.

By IC50 is commonly meant the midpoint of a concentration-inhibition curve. On to `COc1c(C)cc2c(c1O)[C@@H]1CN(Cc3cccc4ccccc34)[C@@H](C#N)[C@H](C2)N1C` [DH_28, (1R,4R,5S)-10-hydroxy-9-methoxy-8,11-dimethyl-3-(naphthalen-1-ylmethyl)-1,2,3,4,5,6-hexahydro-1,5-epiminobenzo[d]azocine-4-carbonitrile], for which the half-maximal inhibitory concentration (IC50) was 16.5 ± 2.11 µM in the assay on BEAS-2B cells; under 15 µM in the assay on H460 cells [2] (24 h); 11.5 ± 1.87 µM in the assay with H460 cells [2] (Homo sapiens, NCI-H460, 24 h); under 15 µM in the assay with H292 cells [3] (24 h); 9.56 ± 1.87 µM in the assay with H292 cells [3] (Homo sapiens, NCI-H292, 24 h). The apoptotic cell death entry in the assay with H460 cells [4] is given as “significant apoptotic cell death”. The necrosis result in the assay on H460 cells [4] is given as “significant necrosis”; in the assay with H292 cells [5] (24 h (p < 0.001)), “Necrosis was detected”. Besides, the apoptosis result with H292 cells [5] (24 h) was “significant apoptosis”.

In the case of `COc1c(C)cc2c(c1O)C1CN(Cc3ccccc3)C(C#N)C(C2)N1C` (stereo not drawn) [TM-(−)-18, reference compound], the IC50 in the assay with BEAS-2B cells is 7.25 ± 1.25 µM; in the assay with H460 cells [2] (Homo sapiens, NCI-H460, 24 h), 7.89 ± 1.27 µM; in the assay on H292 cells [3] (Homo sapiens, NCI-H292, 24 h), over 100 µM. The apoptosis entry in assay [6] is “increased”.

As for `COc1c(C)cc2c(c1O)[C@@H]1CN(Cc3cccnc3)[C@@H](C#N)[C@H](C2)N1C` [DH_20, (1R,4R,5S)-10-hydroxy-9-methoxy-8,11-dimethyl-3-(pyridin-3-ylmethyl)-1,2,3,4,5,6-hexahydro-1,5-epiminobenzo[d]azocine-4-carbonitrile], the half-maximal inhibitory concentration (IC50) with H460 cells [2] (Homo sapiens, NCI-H460, 24 h) is over 100 µM; in the assay with H292 cells [3] (Homo sapiens, NCI-H292, 24 h), 21.5 ± 3.77 µM.
